Earlier results, collected in patent US12728106B2, “Multiparticulate pharmaceutical composition of tamsulosin and solifenacin” (priority 2020, dated 2026).
Where two headings read alike, the source gives them in different places.

| Solubility in dimethyl sulfoxide (room temperature, dimethyl sulfoxide) | Solubility in glacial acetic acid (room temperature, glacial acetic acid) | Solubility in methanol (room temperature, methanol) | Solubility in water (room temperature) | Solubility in water | Structure (SMILES) |
| --- | --- | --- | --- | --- | --- |
| freely soluble | freely soluble | freely soluble | freely soluble |  | O=C(O[C@H]1CN2CCC1CC2)N1CCc2ccccc2[C@@H]1c1ccccc1 [Solifenacin succinate, butanedioic acid compound with (1S)-(3R)-1-azabicyclo[2.2.2]oct-3-yl 3,4-dihydro-1-phenyl-2(1H)-iso-quinolinecarboxylate (1:1)] |
|  |  |  |  | sparingly soluble | CCOc1ccccc1OCCN[C@H](C)Cc1ccc(OC)c(S(N)(=O)=O)c1.Cl [Tamsulosin hydrochloride, (−)-(R)-5-[2-[[2-(o-Ethoxyphenoxy)ethyl]amino]propyl]-2methoxybenzenesulfonamide, monohydrochloride] |
